We go through one substance from patent US9555061B2, “Synthesis and analysis of compounds capable of inducing differentiation of human mesenchymal stems cells into hepatocytes” (National University Corporation Torrori University, priority 2011, dated 2017).

Common to all, as to format: cell-based, human
Assay [1] concerns clinical specimen-derived mesenchymal stem cells. Kind of assay: RT-PCR of hepatocyte differentiation marker in clinical specimen-derived mesenchymal stem cells. Conditions: hexachlorophene 4 μM, HC-2 20 μM, PN-3-13 20 μM, IC-2 40 μM. The procedure: A fresh bone marrow aspirate was collected under informed consent from a patient (a person) with osteoarthritis who underwent replacement arthroplasty at the Department of Orthopedic Surgery, Tottori University Hospital. This aspirate was subjected to density gradient centrifugation using ficoll (Amersham Biosciences) to separate bone marrow mononuclear cells (FIG. 31). These bone marrow mononuclear cells were suspended in 1 ml of Hanks' balanced salt solution (HBSS, Gibco, Life Technologies Corp.) supplemented with a 100-fold diluted APC-labeled anti-CD90 antibody, a 407-fold diluted PE-labeled anti-CD271 antibody, and 2% fetal bovine serum (FBS, Defined, Thermo Fisher Scientific Inc.), and were stained on ice for 30 min. A flow cytometer (MoFlo XDP, Beckman Coulter Inc.) was used to selectively separate mesenchymal stem cells. The resulting cells were cultured in Dulbecco's Modified Eagle's Medium (Low Glucose, Gibco, Life Technologies Corp.) containing 20% FBS, 100 U/ml penicillin, […] streptomycin (Nacalai Tesque), and 20 ng/ml basic fibroblast growth factor (TRANS GENIC INC., Ltd.) on a 35-mm dish under conditions at 37° C. and 5% CO2. The medium was changed every 4 days. After colonies were formed, the cells were detached using a 0.025% trypsin/1 mM EDTA solution (Nacalai Tesque), split on a 100-mm dish, and cultured under conditions at 37° C. and 5% CO2. Then, the cells which were kept 70 to 80% confluent were detached using trypsin treatment. These cells in one dish were divided into four dishes for passage.
Cells were seeded on a 6-well plate at a cell density of 1.8×10^4 cells/cm^2. This day was designated as day 0. At day 1 corresponding to the next day, the medium was changed to a medium containing any one of hexachlorophene (at a final concentration of 4 μM), HC-2 (at a final concentration of 20 μM), PN-3-13 (at a final concentration of 20 μM), IC-2 (at a final concentration of 40 μM), and 0.1% DMSO. […]

Assay [2] concerns Wnt/β-catenin signaling pathway. In words: Ability of inhibiting Wnt/β-catenin pathway, luciferase assay (UE7T-13). To be noted: 8 days after the treatment; pTCF4-CMV-luciferase reporter. The text has this:
FIG. 3 is a schematic diagram illustrating how to establish a human mesenchymal stem cell stably expressing a β-catenin/TCF4/luciferase reporter gene. FIG. 3 illustrates how to construct pTCF4-CMVpro-GL4.20 plasmid by using a luciferase expression vector. The pTCF4-CMVpro-GL4.20 plasmid contains three TCF4 sequences […] upstream of a CMV promoter to express luciferase. In addition, pCMVpro-GL4.20 plasmid was constructed as a control. The resulting plasmids were each linearized, introduced into UE7T-13 by electroporation, and selected using puromycin (0.25 μg/ml) supplemented in a medium. Puromycin-resistant cells were cloned and used for a luciferase assay.
The cell line having a vector stably expressing luciferase was seeded on a 24-well plate, and was cultured at 37° C. At the next day, the medium was changed to a medium containing IC-2, etc., and the cell line was further cultured at 37° C. After that, at days 1, 4, and 8, a luciferase assay system (Promega) was used and the luciferase activity was read with a fluorescence plate reader (ARVO) at a wavelength of 556 nm.

Assay [3] deals with UE7T-13 cells. Kind of assay: Hepatocyte differentiation induction, RT-PCR of albumin (UE7T-13). Conditions: 15 μM. Here is the method:
After 24 h, the medium was changed to a medium containing IC-2, etc. After that, the medium was changed twice a week, and the cells were subcultured once a week to adjust a cell number at 9.0×10^3 cells/cm^2. Total RNA was collected at days 8, 16, and 24 after the initiation of the induction.
Total RNA was extracted with a TRIzol reagent. After the extraction, in order to completely remove DNA, deoxyribonuclease was added and the mixture was incubated at 37° C. for 1 h. A SuperScript First-Stand Synthesis System for RT-PCR (Invitrogen) was used for reverse transcription, and an oligo dT primer was used to convert 1 μg of RNA into cDNA. To perform a PCR, the cDNA was diluted by 5 times and 1 μl of the cDNA was used. A recombinant Taq DNA polymerase (Invitrogen) was used for the PCR. With regard to primers for human albumin, 5′-[…]-3′ (SEQ ID NO: 1) and 5′-[…]-3′ (SEQ ID NO: 2) were used. The PCR involved 1 cycle of 95° C. for 2 min and 35 cycles of 95° C. for 30 sec, 58° C. for 30 sec, and 72° C. for 30 sec. Human glyceraldehyde 3-phosphate dehydrogenase (GAPDH) was used as an internal control. With regard to GAPDH primers, 5′-[…]-3′ (SEQ ID NO: 3) and 5′-[…]-3′ (SEQ ID NO: 4) were used. The PCR involved 1 cycle of 95° C. for 2 min and 20 cycles of 95° C. for 30 sec, 60° C. for 30 sec, and 72° C. for 30 sec. […]

Assay [4] concerns CD90+CD271+ bone marrow-derived mesenchymal stem cells. Kind of assay: Urea assay in CD90+CD271+ bone marrow-derived mesenchymal stem cells. To be noted: hexachlorophene 4 μM, PN-3-13 20 μM, IC-2 40 μM; day 8 plus 96 h ammonium chloride. Here is the method: A urea assay was performed according to the following protocol. CD90^+CD271^+ bone marrow-derived mesenchymal stem cells were seeded on a 24-well plate at a cell density of 1.8×10^4 cells/cm^2. This day was designated as day 0. At day 1 corresponding to the next day, each medium was changed to a medium containing hexachlorophene (at a final concentration of 4 μM), HC-2 (at a final concentration of 20 μM), PN-3-13 (at a final concentration of 20 μM), IC-2 (at a final concentration of 40 μM), or 0.1% DMSO. At day 4, the medium was changed in a manner similar to that at day 1, and the cells were cultured until day 8. At day 8, the medium was removed, and replaced with a medium containing ammonium chloride (Nacalai Tesque) at a final concentration of 5 mM. The cells were further cultured for 96 h. At 96 h after the addition of ammonium chloride, levels of urea in the medium were determined using a QuantiChrom Urea Assay Kit (BioAssay Systems) according to the attached protocol by reading the absorbance at a wavelength of 520 nm with a microplate reader. The levels of urea were calculated based on a standard sample according to the attached calculation method. As a negative control for the urea assay, used were CD90^+CD271^+ bone marrow-derived mesenchymal stem cells that were seeded one day before the day of the immunostaining and were not subjected to the differentiation induction.

In the case of “(6S,9aS)-6-phenyl-8-naphthalen-1-ylmethyl-4,7-dioxo-hexahydro-pyrazino[1,2-a]pyrimidine-1-carbocylic acid benzylamide [IC-2]”, in assay [1], the expression of albumin entry is reported as “induced”. The “concentration that significantly inhibited the Wnt/β-catenin signaling pathway” value in assay [2] is at least 15 µM. Also, the “levels of the albumin expression” value in assay [3] is recorded as “particularly high”. The “cellular urea synthesis compared with negative control (0.1% DMSO)” value in assay [4] is “apparent increase”.
